# Measured values taken from patent US20240066152A1, “CONTRAST AGENT FOR DETECTING CARTILAGE DAMAGE AND METHOD AND PROGRAM FOR EXAMINING CARTILAGE DAMAGE USING SAID CONTRAST AGENT” (NATIONAL UNIVERSITY CORPORATION HOKKAIDO UNIVERSITY, priority 2020, published 2024).
# Tested on: articular cartilage of the rabbit knee joint (both femoral condyles), ACLT model
# Experiment: MRI evaluation of articular cartilage damage in the anterior cruciate ligament transection (ACLT) model using ^17O-labeled water
# Type: in vivo, Japanese white rabbits
# Protocol: An ACLT model was created using 14-week-old male Japanese white rabbits to induce cartilage damage in the knee joint. The rabbits were anesthetized intravenously with pentobarbital (30 mg/kg) and ketamine (50 mg/kg), followed by inhalation anesthesia with isoflurane (1 to 4%) for maintenance anesthesia. The anterior surface of the knee joint on the operative side was shaved, was disinfected with povidone-iodine, and then an analgesic (buprenorphine 0.02 mg/kg) was subcutaneously administered by injection. Skin incision of about 5 cm was placed on the medial side of the patella, and the joint capsule was incised in a similar position. The patella was dislocated laterally, and the knee joint was deeply flexed to expose the anterior cruciate ligament of the femoral intercondylar part, which was separated using a No. 11 scalpel. After washing the inside of the joint with a physiological saline solution, the joint capsule and the skin were sutured using 3-0 nylon thread. Postoperatively, euthanasia was performed if wound infection was observed or in the case of an inability to stand.
# It has been reported that in the ACLT model, degeneration of cartilage surface begins at 4 weeks postoperatively and occurs in the entire cartilage layer from 8 weeks postoperatively (Makoto Yoshioka et al. Characterization of a model of osteoarthritis in the rabbit knee. Osteoarthritis and Cartilage, 1996, 4 (2): 87-98), and thus five rabbits were slaughtered and euthanized with pentobarbital (200 mg/kg) each at 4 weeks and 8 weeks postoperatively, and cartilage damage was evaluated by MRI and macroscopically and histologically.
# MRI Imaging Using a 3T-MRI apparatus (MAGNETOM Prisma, Siemens), imaging of the rabbit knee joint on the operative side was performed. The affected rabbit limb was disarticulated at the thigh and was fixed at the knee joint extension to avoid the influence of body movement during imaging. A 24G Surflo needle was inserted from the anterior surface of the knee joint through the patellar tendon and was indwelled in the joint. […]
substance,measurement,setting,value
^17O-labeled water,change over time in ^17O concentration in ROI 1 and ROI 2 (damaged cartilage region),"immediately after administration (fourth imaging), calculated from average T2-weighted signal values in each ROI, 4 weeks postoperatively",showed an increase in the ^17O concentration
same,^17O concentration (^17O map calculated from signal values of T2-weighted image),"representative case 4 weeks postoperatively, about 11 minutes after administration (sixth imaging), 0.5 ml saline containing 20-mol % ^17O-labeled water into knee joint of disarticulated limb",higher in the region where cartilage damage was observed
same,change over time in ^17O concentration in ROI 3 and ROI 4 (normal cartilage region),"with administration of ^17O-labeled water, calculated from average T2-weighted signal values in each ROI, 4 weeks postoperatively",showed no tendency of an increase in the ^17O concentration
